Data as given in publication PMC9185314 (RSC Advances, 2022).

Biological target: Jack bean urease (Canavalia ensiformis, UniProt P07374)
Test: urease inhibition assay, indophenol
Format: biochemical

Chain of Jack bean urease (P07374 whole entry, looked up): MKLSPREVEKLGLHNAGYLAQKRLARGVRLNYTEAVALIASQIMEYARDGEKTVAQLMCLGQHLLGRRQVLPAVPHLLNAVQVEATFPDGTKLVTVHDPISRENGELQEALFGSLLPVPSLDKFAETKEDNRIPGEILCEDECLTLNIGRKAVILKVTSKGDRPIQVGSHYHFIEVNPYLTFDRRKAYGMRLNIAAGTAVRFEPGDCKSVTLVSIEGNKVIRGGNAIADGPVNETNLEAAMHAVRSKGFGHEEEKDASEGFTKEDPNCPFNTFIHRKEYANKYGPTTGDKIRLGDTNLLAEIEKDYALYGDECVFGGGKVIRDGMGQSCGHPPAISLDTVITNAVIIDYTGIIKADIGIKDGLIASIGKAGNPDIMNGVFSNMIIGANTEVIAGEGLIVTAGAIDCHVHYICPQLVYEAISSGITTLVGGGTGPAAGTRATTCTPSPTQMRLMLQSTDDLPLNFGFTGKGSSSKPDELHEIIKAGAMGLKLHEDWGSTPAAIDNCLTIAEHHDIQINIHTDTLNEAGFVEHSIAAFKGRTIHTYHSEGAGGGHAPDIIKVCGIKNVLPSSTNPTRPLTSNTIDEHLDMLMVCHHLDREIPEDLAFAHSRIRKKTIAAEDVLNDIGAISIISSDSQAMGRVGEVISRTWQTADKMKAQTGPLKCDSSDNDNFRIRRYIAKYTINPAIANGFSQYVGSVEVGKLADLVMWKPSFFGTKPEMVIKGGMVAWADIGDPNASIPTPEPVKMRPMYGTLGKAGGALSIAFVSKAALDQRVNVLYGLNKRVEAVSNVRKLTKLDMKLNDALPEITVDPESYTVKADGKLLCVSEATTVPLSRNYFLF

IC50: 38.9 ± 1.7 nM
SMILES: CC(=O)c1ccc(NC(=S)NC(=O)c2ccc(Cl)cc2Cl)cc1 [compound 4, N-((4-Acetylphenyl)carbamothioyl)-2,4-dichlorobenzamide]
